Here are results for 22 compounds from US12678446B2 (PFIZER INC., priority 2020, dated 2026).

The nature of data set [1]: cell toxicity CC50. As to conditions: human; Hep-G2 cells; mean of at least two experiments; read-out: Cell Cytotoxicity CC50. In kind it is cell-based.
The subject of data set [2] is RSV (RSV A2 ECACC, 0709161v). As to the kind of experiment: RSV plaque reduction assay. In kind it is cell-based, respiratory syncytial virus. The following applies: human respiratory syncytial virus, HepG2, read-out: RSV A2 Plaque EC50, RSV A2 in Hep-G2 cells; mean of at least two experiments unless noted (n = 1). A digest of the protocol: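 Eight-point compound dilutions were premixed with RSV A2 (100 PFU/well) and applied to confluent Hep-G2 cells for 2 h, followed by a 2-day incubation at 37° C. under compound-containing 0.8% CMC overlay. EC50 comes from immunostained plaque counts relative to untreated virus wells, averaged over ≥2 runs.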
(Plaque reduction counts the foci of infection that form in a cell layer.)

The structures appear in SMILES notation.

As a reminder, the CC50 is the concentration giving 50% cytotoxicity. What is called EC50 is the concentration that produces a half-maximal response. `Cc1cnc(F)c(-c2nn3c(c2C(=O)N[C@H]2N=C(c4ccccc4)c4cccc(F)c4NC2=O)OCCC3)c1` [Example 43, 2-(2-Fluoro-5-methylpyridin-3-yl)-N-[(3S)-9-fluoro-2-oxo-5-phenyl-1,3-dihydro-1,4-benzodiazepin-3-yl]-6,7-dihydro-5H-pyrazolo[5,1-b][1,3]oxazine-3-carboxamide]: in data set [1], the cytotoxic concentration (CC50) was > 25000 nM. The half-maximal effective concentration (EC50) in data set [2] is 101 nM.
In the same order, the values of `O=C(N[C@H]1N=C(c2ccccc2)c2ccccc2NC1=O)c1c(-c2ccc(NC3CC3)nc2F)nn2c1OCCC2` [Example 44, 2-[6-(Cyclopropylamino)-2-fluoropyridin-3-yl]-N-[(3S)-2-oxo-5-phenyl-1,3-dihydro-1,4-benzodiazepin-3-yl]-6,7-dihydro-5H-pyrazolo[5,1-b][1,3]oxazine-3-carboxamide] are > 25000 nM and 55 nM.
With `O=C(N[C@H]1N=C(c2ccccc2)c2cccc(F)c2NC1=O)c1c(C2CC2)nn2c1OCCC2` [Example 45, 2-Cyclopropyl-N-[(3S)-9-fluoro-2-oxo-5-phenyl-1,3-dihydro-1,4-benzodiazepin-3-yl]-6,7-dihydro-5H-pyrazolo[5,1-b][1,3]oxazine-3-carboxamide], the CC50 in data set [1] was > 25000 nM. In data set [2], the EC50 came out at 301 nM.
Regarding `C[C@@H]1CCn2nc(-c3cncc(Cl)c3)c(C(=O)N[C@H]3N=C(c4ccccc4)c4ccccc4NC3=O)c2O1` [Example 46, (5R)-2-(5-Chloropyridin-3-yl)-5-methyl-N-[(3S)-2-oxo-5-phenyl-1,3-dihydro-1,4-benzodiazepin-3-yl]-6,7-dihydro-5H-pyrazolo[5,1-b][1,3]oxazine-3-carboxamide], in data set [1], the CC50 is > 25000 nM. Further, in data set [2], the EC50 is 119 nM.
As for `C[C@@H]1CCn2nc(-c3cncc(Cl)c3)c(C(=O)N[C@H]3N=C(c4ccccc4)c4cccc(F)c4NC3=O)c2O1` [Example 47, (5R)-2-(5-Chloropyridin-3-yl)-5-methyl-N-[(3S)-9-fluoro-2-oxo-5-phenyl-1,3-dihydro-1,4-benzodiazepin-3-yl]-6,7-dihydro-5H-pyrazolo[5,1-b][1,3]oxazine-3-carboxamide], the cytotoxic concentration (CC50) in data set [1] is > 25000 nM. Also, the concentration giving a half-maximal response (EC50) in data set [2] turned out to be 84 nM.
For the compound `COc1cc(-c2nn3c(c2C(=O)N[C@H]2N=C(c4ccccc4)c4cccc(F)c4NC2=O)O[C@H](C)CC3)ccn1` [Example 48, (5R)-2-(2-Methoxypyridin-4-yl)-5-methyl-N-[(3S)-9-fluoro-2-oxo-5-phenyl-1,3-dihydro-1,4-benzodiazepin-3-yl]-6,7-dihydro-5H-pyrazolo[5,1-b][1,3]oxazine-3-carboxamide], in data set [1], the CC50 was > 25000 nM. Also, the EC50 in data set [2] stood at 246 nM.
In the case of `COc1cc(-c2nn3c(c2C(=O)N[C@H]2N=C(c4ccccc4)c4ccccc4NC2=O)O[C@H](C)CC3)ccn1` [Example 49, (5R)-2-(2-Methoxypyridin-4-yl)-5-methyl-N-[(3S)-2-oxo-5-phenyl-1,3-dihydro-1,4-benzodiazepin-3-yl]-6,7-dihydro-5H-pyrazolo[5,1-b][1,3]oxazine-3-carboxamide], in data set [1], the 50% cytotoxic concentration (CC50) is > 25000 nM. In addition, the EC50 in data set [2] stood at 243 nM.
As for `CC(O)Cc1ccc(-c2nn3c(c2C(=O)N[C@H]2N=C(c4ccccc4)c4ccccc4NC2=O)O[C@H](C)CC3)cn1` (stereo partly drawn) [Example 50, (5R)-2-[6-(2-Hydroxypropyl)pyridin-3-yl]-5-methyl-N-[(3S)-2-oxo-5-phenyl-1,3-dihydro-1,4-benzodiazepin-3-yl]-6,7-dihydro-5H-pyrazolo[5,1-b][1,3]oxazine-3-carboxamide], the CC50 in data set [1] is > 25000 nM. For the same compound, the EC50 in data set [2] was 429 nM.
On to `CCNc1ccc(-c2nn3c(c2C(=O)N[C@H]2N=C(c4ccccc4)c4cccc(F)c4NC2=O)O[C@H](C)CC3)cn1` [Example 52, (5R)-2-[6-(Ethylamino)-3-pyridyl]-N-[(3S)-9-fluoro-2-oxo-5-phenyl-1,3-dihydro-1,4-benzodiazepin-3-yl]-5-methyl-6,7-dihydro-5H-pyrazolo[5,1-b][1,3]oxazine-3-carboxamide], for which the CC50 in data set [1] is > 25000 nM. In addition, in data set [2], the EC50 came to 28 nM.
Consider `C[C@@H]1CCn2nc(-c3cc(C4CC4)cnc3F)c(C(=O)N[C@H]3N=C(c4ccccc4)c4cccc(F)c4NC3=O)c2O1` [Example 53, (5R)-2-(5-Cyclopropyl-2-fluoro-3-pyridyl)-N-[(3S)-9-fluoro-2-oxo-5-phenyl-1,3-dihydro-1,4-benzodiazepin-3-yl]-5-methyl-6,7-dihydro-5H-pyrazolo[5,1-b][1,3]oxazine-3-carboxamide], for which, in data set [1], the CC50 is > 25000 nM. In addition, the EC50 in data set [2] amounted to 92 nM.
Taken in the same sequence, the figures for `CCc1ccc(-c2nn3c(c2C(=O)N[C@H]2N=C(c4ccccc4)c4ccccc4NC2=O)O[C@H](C)CC3)c(F)c1` [Example 54] were > 25000 nM and 15 nM.
Taken in the same sequence, the figures for `C[C@@H]1CCn2nc(-c3ccc(N4CCOCC4)nc3)c(C(=O)N[C@H]3N=C(c4ccccc4)c4ccccc4NC3=O)c2O1` [Example 55, (5R)-5-Methyl-2-(6-morpholino-3-pyridyl)-N-[(3S)-2-oxo-5-phenyl-1,3-dihydro-1,4-benzodiazepin-3-yl]-6,7-dihydro-5H-pyrazolo[5,1-b][1,3]oxazine-3-carboxamide] were > 25000 nM and 246 nM.
In the same order, the values of `C[C@@H]1CCn2nc(-c3ccc(N4CCOCC4)nc3)c(C(=O)N[C@H]3N=C(c4ccccc4)c4cccc(F)c4NC3=O)c2O1` [Example 56, (5R)-N-[(3S)-9-fluoro-2-oxo-5-phenyl-1,3-dihydro-1,4-benzodiazepin-3-yl]-5-methyl-2-(6-morpholino-3-pyridyl)-6,7-dihydro-5H-pyrazolo[5,1-b][1,3]oxazine-3-carboxamide] are > 25000 nM and 123 nM.
For the compound `Cc1ccc(-c2nn3c(c2C(=O)N[C@H]2N=C(c4ccccc4)c4ccccc4NC2=O)O[C@H](C)CC3)c(C)n1` [Example 57, (5R)-2-(2,6-Dimethyl-3-pyridyl)-5-methyl-N-[(3S)-2-oxo-5-phenyl-1,3-dihydro-1,4-benzodiazepin-3-yl]-6,7-dihydro-5H-pyrazolo[5,1-b][1,3]oxazine-3-carboxamide], the CC50 in data set [1] is > 25000 nM. Besides, the 50% effective concentration (EC50) in data set [2] turned out to be 353 nM.
As for `Cc1ccc(-c2nn3c(c2C(=O)N[C@H]2N=C(c4ccccc4)c4cccc(F)c4NC2=O)O[C@H](C)CC3)c(C)n1` [Example 58, (5R)-2-(2,6-Dimethyl-3-pyridyl)-N-[(3S)-9-fluoro-2-oxo-5-phenyl-1,3-dihydro-1,4-benzodiazepin-3-yl]-5-methyl-6,7-dihydro-5H-pyrazolo[5,1-b][1,3]oxazine-3-carboxamide], the CC50 in data set [1] is > 25000 nM. For the same compound, the concentration giving a half-maximal response (EC50) in data set [2] was found to be 188 nM.
In the case of `CCc1ncc(-c2nn3c(c2C(=O)N[C@H]2N=C(c4ccccc4)c4ccccc4NC2=O)O[C@H](C)CC3)cn1` [Example 59, (5R)-2-(2-Ethylpyrimidin-5-yl)-5-methyl-N-[(3S)-2-oxo-5-phenyl-1,3-dihydro-1,4-benzodiazepin-3-yl]-6,7-dihydro-5H-pyrazolo[5,1-b][1,3]oxazine-3-carboxamide], the cytotoxic concentration (CC50) in data set [1] is > 25000 nM. In data set [2], the 50% effective concentration (EC50) was 309 nM.
Taken in the same sequence, the figures for `CCc1ncc(-c2nn3c(c2C(=O)N[C@H]2N=C(c4ccccc4)c4cccc(F)c4NC2=O)O[C@H](C)CC3)cn1` [Example 60, (5R)-2-(2-Ethylpyrimidin-5-yl)-N-[(3S)-9-fluoro-2-oxo-5-phenyl-1,3-dihydro-1,4-benzodiazepin-3-yl]-5-methyl-6,7-dihydro-5H-pyrazolo[5,1-b][1,3]oxazine-3-carboxamide] were > 25000 nM and 167 nM.
`C[C@@H]1CCn2nc(-c3ccoc3)c(C(=O)N[C@H]3N=C(c4ccccc4)c4cccc(F)c4NC3=O)c2O1` [Example 61, (5R)-N-[(3S)-9-fluoro-2-oxo-5-phenyl-1,3-dihydro-1,4-benzodiazepin-3-yl]-2-(3-furyl)-5-methyl-6,7-dihydro-5H-pyrazolo[5,1-b][1,3]oxazine-3-carboxamide]: the 50% cytotoxic concentration (CC50) in data set [1] was > 25000 nM. Also, the EC50 in data set [2] came to 161 nM.
Turning to `C[C@@H]1CCn2nc(-c3ccoc3)c(C(=O)N[C@H]3N=C(c4ccccc4)c4ccccc4NC3=O)c2O1` [Example 62, (5R)-2-(3-Furyl)-5-methyl-N-[(3S)-2-oxo-5-phenyl-1,3-dihydro-1,4-benzodiazepin-3-yl]-6,7-dihydro-5H-pyrazolo[5,1-b][1,3]oxazine-3-carboxamide], the CC50 in data set [1] was > 25000 nM. The EC50 in data set [2] came out at 192 nM.
In the case of `C[C@@H]1CCn2nc(-c3ccsc3)c(C(=O)N[C@H]3N=C(c4ccccc4)c4cccc(F)c4NC3=O)c2O1` [Example 63, (5R)-N-[(3S)-9-fluoro-2-oxo-5-phenyl-1,3-dihydro-1,4-benzodiazepin-3-yl]-5-methyl-2-(3-thienyl)-6,7-dihydro-5H-pyrazolo[5,1-b][1,3]oxazine-3-carboxamide], the 50% cytotoxic concentration (CC50) in data set [1] is > 25000 nM. Besides, in data set [2], the half-maximal effective concentration (EC50) was 94 nM.
For `C[C@@H]1CCn2nc(-c3ccsc3)c(C(=O)N[C@H]3N=C(c4ccccc4)c4ccccc4NC3=O)c2O1` [Example 64, (5R)-5-Methyl-N-[(3S)-2-oxo-5-phenyl-1,3-dihydro-1,4-benzodiazepin-3-yl]-2-(3-thienyl)-6,7-dihydro-5H-pyrazolo[5,1-b][1,3]oxazine-3-carboxamide], the CC50 in data set [1] is > 25000 nM. The EC50 in data set [2] came out at 133 nM.
As to `CCc1ccc(-c2nn3c(c2C(=O)N[C@H]2N=C(c4ccccc4)c4ccccc4NC2=O)O[C@H](C)CC3)c(C)n1` [Example 65, (5R)-2-(6-Ethyl-2-methyl-3-pyridyl)-5-methyl-N-[(3S)-2-oxo-5-phenyl-1,3-dihydro-1,4-benzodiazepin-3-yl]-6,7-dihydro-5H-pyrazolo[5,1-b][1,3]oxazine-3-carboxamide], the CC50 in data set [1] was > 25000 nM. The EC50 in data set [2] was determined as 84 nM.
